Assay results: ChEMBL document CHEMBL1153018, “Synthesis of pochoxime prodrugs as potent HSP90 inhibitors” (Bioorg Med Chem Lett, 2009)
Active and inactive are the calls of the source. No cut-off for these calls is given here.

What was measured:
[1] = target: Heat shock protein HSP 90-alpha (Homo sapiens) (UniProt P07900); assay: Binding affinity to human HSP90alpha at < 10 uM
[2] = Aqueous solubility of the compound; type: physicochemical
[3] = Drug level in mouse liver at 4 mg/kg, iv; type: ADME, organism-based; parameters: dose 4 mg/kg, route intravenous
[4] = test system: Liver; assay: Drug level in mouse liver at 30 mg/kg, po; type: ADME, organism-based; parameters: dose 30 mg/kg, route oral; conditions: in vivo
[5] = test system: MDA-MB-468; assay: Growth inhibition of human MDA-MB-468 cells assessed as ATP level after 4 days; type: functional; conditions: MDA-MB-468, 96 h
[6] = test system: BT-474; assay: Growth inhibition of human BT474 cells assessed as ATP level after 4 days; type: functional; conditions: BT-474, 96 h
[7] = target: Heat shock protein HSP 90-alpha (Homo sapiens) (UniProt P07900)
[8] = test system: NCI-N87; assay: Growth inhibition of human NCI-N87 cells assessed as ATP level after 4 days; type: functional; conditions: NCI-N87, 96 h
[9] = test system: Mus musculus; assay: Toxicity in ICR-SCID mouse heart assessed as cholesterol level at 75 mg/kg administered 3 times per week for 4 weeks measured after 24 hrs of last dose relative to untreated control; type: organism-based; parameters: dose 75 mg/kg; conditions: in vivo
[10] = test system: NCI-H1975; assay: Growth inhibition of human tarceva and iressa-resistant NCI-H1975 cells assessed as ATP level after 4 days; type: functional; conditions: NCI-H1975, 96 h
[11] = test system: Mus musculus; assay: Hepatotoxicity in ICR-SCID mouse liver assessed as aspartate aminotransferase level at 75 mg/kg administered 3 times per week for 4 weeks measured after 24 hrs of last dose relative to untreated control; type: toxicity, organism-based; parameters: dose 75 mg/kg; conditions: in vivo
[12] = test system: Mus musculus; assay: Hepatotoxicity in ICR-SCID mouse liver assessed as alkaline phosphatase level at 100 mg/kg administered 3 times per week for 4 weeks measured after 24 hrs of last dose relative to untreated control; type: toxicity, organism-based; parameters: dose 100 mg/kg; conditions: in vivo
[13] = test system: Mus musculus; assay: Hepatotoxicity in ICR-SCID mouse liver assessed as bilirubin level at 100 mg/kg administered 3 times per week for 4 weeks measured after 24 hrs of last dose relative to untreated control; type: toxicity, organism-based; parameters: dose 100 mg/kg; conditions: in vivo
[14] = test system: Mus musculus; assay: Toxicity in ICR-SCID mouse kidney assessed as creatinine level at 50 mg/kg administered 3 times per week for 4 weeks measured after 24 hrs of last dose relative to untreated control; type: organism-based; parameters: dose 50 mg/kg; conditions: in vivo
[15] = test system: Mus musculus; assay: Toxicity in ICR-SCID mouse kidney assessed as creatinine level at 75 mg/kg administered 3 times per week for 4 weeks measured after 24 hrs of last dose relative to untreated control; type: organism-based; parameters: dose 75 mg/kg; conditions: in vivo
[16] = test system: Mus musculus; assay: Hepatotoxicity in ICR-SCID mouse liver assessed as bilirubin level at 75 mg/kg administered 3 times per week for 4 weeks measured after 24 hrs of last dose relative to untreated control; type: toxicity, organism-based; parameters: dose 75 mg/kg; conditions: in vivo
[17] = test system: Mus musculus; assay: Hepatotoxicity in ICR-SCID mouse liver assessed as alanine aminotransferase level at 50 mg/kg administered 3 times per week for 4 weeks measured after 24 hrs of last dose relative to untreated control; type: toxicity, organism-based; parameters: dose 50 mg/kg; conditions: in vivo
[18] = test system: Mus musculus; assay: Hepatotoxicity in ICR-SCID mouse liver assessed as alanine aminotransferase level at 100 mg/kg administered 3 times per week for 4 weeks measured after 24 hrs of last dose relative to untreated control; type: toxicity, organism-based; parameters: dose 100 mg/kg; conditions: in vivo
[19] = test system: Mus musculus; assay: Hepatotoxicity in ICR-SCID mouse liver assessed as aspartate aminotransferase level at 100 mg/kg administered 3 times per week for 4 weeks measured after 24 hrs of last dose relative to untreated control; type: toxicity, organism-based; parameters: dose 100 mg/kg; conditions: in vivo
[20] = test system: Mus musculus; assay: Toxicity in ICR-SCID mouse heart assessed as […] level at 75 mg/kg administered 3 times per week for 4 weeks measured after 24 hrs of last dose relative to untreated control; type: organism-based; parameters: dose 75 mg/kg; conditions: in vivo
[21] = test system: Mus musculus; assay: Hepatotoxicity in ICR-SCID mouse liver assessed as bilirubin level at 50 mg/kg administered 3 times per week for 4 weeks measured after 24 hrs of last dose relative to untreated control; type: toxicity, organism-based; parameters: dose 50 mg/kg; conditions: in vivo
[22] = test system: Mus musculus; assay: Toxicity in ICR-SCID mouse heart assessed as […] level at 50 mg/kg administered 3 times per week for 4 weeks measured after 24 hrs of last dose relative to untreated control; type: organism-based; parameters: dose 50 mg/kg; conditions: in vivo
[23] = test system: Mus musculus; assay: Toxicity in ICR-SCID mouse heart assessed as cholesterol level at 50 mg/kg administered 3 times per week for 4 weeks measured after 24 hrs of last dose relative to untreated control; type: organism-based; parameters: dose 50 mg/kg; conditions: in vivo
[24] = test system: Mus musculus; assay: Hepatotoxicity in ICR-SCID mouse liver assessed as aspartate aminotransferase level at 50 mg/kg administered 3 times per week for 4 weeks measured after 24 hrs of last dose relative to untreated control; type: toxicity, organism-based; parameters: dose 50 mg/kg; conditions: in vivo
[25] = test system: MV4-11; assay: Growth inhibition of human MV4-11 cells assessed as ATP level after 4 days; type: functional; conditions: MV4-11, 96 h
[26] = test system: Mus musculus; assay: Hepatotoxicity in ICR-SCID mouse liver assessed as alanine aminotransferase level at 75 mg/kg administered 3 times per week for 4 weeks measured after 24 hrs of last dose relative to untreated control; type: toxicity, organism-based; parameters: dose 75 mg/kg; conditions: in vivo
[27] = test system: K562; assay: Growth inhibition of human K562 cells assessed as ATP level after 4 days; type: functional; conditions: K562, 96 h
[28] = test system: Mus musculus; assay: Hepatotoxicity in ICR-SCID mouse liver assessed as alkaline phosphatase level at 50 mg/kg administered 3 times per week for 4 weeks measured after 24 hrs of last dose relative to untreated control; type: toxicity, organism-based; parameters: dose 50 mg/kg; conditions: in vivo
[29] = Growth inhibition of human tarceva and iressa-resistant HCC827 cells assessed as ATP level after 4 days; type: functional; conditions: HCC827, 96 h
[30] = test system: Mus musculus; assay: Hepatotoxicity in ICR-SCID mouse liver assessed as alkaline phosphatase level at 75 mg/kg administered 3 times per week for 4 weeks measured after 24 hrs of last dose relative to untreated control; type: toxicity, organism-based; parameters: dose 75 mg/kg; conditions: in vivo
[31] = organism: Homo sapiens; assay: Growth inhibition of human tarceva and iressa-resistant […] cells assessed as ATP level after 4 days; type: functional
[32] = Growth inhibition of human MDA231 cells assessed as ATP level after 4 days; type: functional; conditions: MDA-MB-231, 96 h
[33] = test system: HCT-116; assay: Growth inhibition of human HCT116 cells assessed as ATP level after 4 days; type: functional; conditions: HCT-116, 96 h
[34] = test system: NSCLC; assay: Growth inhibition of human NSCLC cells assessed as ATP level after 4 days; type: functional, cell-based
[35] = test system: PC-3; assay: Growth inhibition of human PC3 cells assessed as ATP level after 4 days; type: functional, cell-based

For O=C1OCC/C=C/CC/C=C/C(=N/OCC(=O)N2CCCCC2)Cc2cc(OP(=O)([O-])[O-])cc(O)c21.[Na+].[Na+], the Activity [1] was “inactive” and the solubility [2] was ≥ 80 mg/mL.
In the case of C[C@@H]1C/C=C/CC/C=C/C(=N/OCC(=O)N2CCCCC2)Cc2cc(OP(=O)([O-])[O-])cc(OP(=O)([O-])[O-])c2C(=O)O1.[Na+].[Na+].[Na+].[Na+], the Activity [1] is reported as “inactive”, the Cmax [3] is reported as 3840 ng/g and the Drug uptake [4] is reported as 12469 ng/g. For the same compound, the solubility [2] was > 100 mg/mL.
With O=C1OCC/C=C/CC/C=C/C(=N/OCC(=O)N2CCCCC2)Cc2cc(OCOP(=O)([O-])[O-])cc(O)c21.[Na+].[Na+] the Activity [1] was “inactive” and the solubility [2] was ≥ 80 mg/mL.
In the case of C[C@@H]1C/C=C/CC/C=C/C(=N/OCC(=O)N2CCCCC2)Cc2cc(OP(=O)([O-])[O-])cc(O)c2C(=O)O1.[Na+].[Na+], the Activity [1] is reported as “inactive” and the solubility [2] is reported as ≥ 80 mg/mL.
In the case of O=C1OCC/C=C/CC/C=C/C(=N/OCC(=O)N2CCCCC2)Cc2c(Cl)c(OP(=O)([O-])[O-])cc(O)c21.[Na+].[Na+], the GI50 [5] is reported as 37 nM, the Activity [1] is reported as “inactive” and the GI50 [6] is reported as 14 nM. For the same compound, the GI50 [7] was > 10000 nM, the GI50 [8] was 19 nM and the solubility [2] was ≥ 80 mg/mL.
For O=C1OCC/C=C/CC/C=C/C(=N/OCC(=O)N2CCCCC2)Cc2c(Cl)c(O)cc(OP(=O)([O-])[O-])c21.[Na+].[Na+], the Activity [1] was “inactive” and the solubility [2] was ≥ 80 mg/mL.
Work on C=CCNC1=C2C[C@@H](C)C[C@H](OC)[C@H](O)[C@@H](C)/C=C(\C)[C@H](OC(N)=O)[C@@H](OC)/C=C\C=C(/C)C(=O)NC(=CC1=O)C2=O (stereo in doubt) [TANESPIMYCIN] yielded a GI50 [5] of 780 nM, an Activity [9] of 97.5 mg/dL and a GI50 [10] of 35 nM. For the same compound, the Activity [11] was 1058.3 U/L, the Activity [12] was 131.3 U/L and the Activity [13] was 1.1 mg/dL. It also gave an Activity [14] of 0.2 mg/dL, a GI50 [6] of 5 nM and an Activity [15] of 0.2 mg/dL. It also gave an Activity [16] of 0.25 mg/dL, an Activity [17] of 175.3 U/L and an Activity [18] of 11134 U/L. It also gave an Activity [19] of 10611.3 U/L, an Activity [20] of 166 U/L and an Activity [21] of 0.2 mg/dL. The Activity [22] was 64.7 U/L, the Activity [23] was 105.3 mg/dL and the Activity [24] was 216 U/L. It also gave a GI50 [25] of 11 nM, an Activity [26] of 755.7 U/L and a GI50 [27] of 48 nM. For the same compound, the GI50 [8] was 1 nM, the Activity [28] was 128.3 U/L and the GI50 [29] was 56 nM. The Activity [30] was 143.3 U/L.
For O=C1OCC/C=C/CC/C=C/C(=N/OCC(=O)N2CCCCC2)Cc2cc(O)cc(O)c21 [POCHOXIME B], the GI50 [5] was 2 nM, the Activity [31] was “Active” and the GI50 [32] was 2 nM. For the same compound, the GI50 [6] was 2 nM, the GI50 [33] was 11 nM and the Activity [34] was “Active”. For the same compound, the GI50 [25] was 2 nM, the Activity [35] was “Active” and the GI50 [7] was 15 nM. It also gave a GI50 [27] of 4 nM and a GI50 [8] of 1 nM.
In the case of C[C@@H]1C/C=C/CC/C=C/C(=N/OCC(=O)N2CCCCC2)Cc2cc(O)cc(O)c2C(=O)O1 [POCHOXIME C], the GI50 [5] is reported as 6 nM, the Activity [31] is reported as “Active” and the GI50 [32] is reported as 6 nM. The GI50 [6] was 6 nM, the Activity [34] was “Active” and the GI50 [25] was 3 nM. The Activity [35] was “Active”, the GI50 [7] was 18 nM and the GI50 [27] was 7 nM. For the same compound, the GI50 [8] was 2 nM.
